This note sets out measurements from patent US20240335444A1, “MODULATORS OF BCL6 PROTEOLYSIS AND ASSOCIATED METHODS OF USE” (Arvinas Operations, Inc., priority 2023, published 2024).

In experiment [1] the test system is LY3148. Kind of experiment: PDX model of Burkitt's lymphoma (LY3148). Type of experiment: in vivo, NOD/SCID or BALB/c Nude Mice. Conditions: 30 mg/kg PO QD×21. As for the experimental part:
(§1) HuPrime® Lymphoma Xenograft Models in NOD/SCID or BALB/c Nude Mice, 4/group, were dosed orally (per os, PO) daily for 21 days (QD×21) and tumor measurements were acquired twice per week. […] Data points represent the mean per group and error bars the standard error of the mean.

The subject of experiment [2] is OCI-Ly10. In words: Tumor growth of DLBCL cell line derived xenograft model OCI-Ly10. Particulars: po 3, 10 or 30 mg/kg bid×28 or 30 mg/kg qd×28, dosing dependent. Type of experiment: in vivo, mice. The protocol: (§2) Mice bearing subcutaneous tumors were orally (po) administered vehicle or Compound A at 3, 10, or 30 mg/kg bi-daily for 28 days (bid×28) or 30 mg/kg daily for 28 days (qd×28). Dosing began with tumors at an average of 190 mm^3. […] FIG. 10C depicts tumor lysate BCL6 protein levels 16-hours post-last dose analyzed by western blotting. Individual tumor BCL6 levels are shown in a scatter plot, mean is represented by the bar, determined by densitometry, normalized to GAPDH loading controls, and shown as a percentage of vehicle. Percent BCL6 degradation (%) relative to vehicle is shown above each arm. Statistical analyses were performed using 2-way ANOVA: p<0.05 (*), p<0.0001 (****). Error bars represent standard error of the mean (±SEM).

The test system of experiment [3] is LY6934. In words: PDX model of DLBCL, ABC/GCB (LY6934). It counts as in vivo, NOD/SCID or BALB/c Nude Mice. Conditions: 30 mg/kg PO QD×21, compared to vehicle. The protocol: as §1
In experiment [4] the target is T1, BCL6 protein (Homo sapiens, UniProt P41182). Kind of experiment: Tumor lysate BCL6 protein levels in SU-DHL-2 xenograft (western blotting). Particulars: 16-hours post-last dose. It counts as in vivo, mice. Details: from tissue; host or cells: subcutaneous xenograft tumors of OCI-Ly1, OCI-Ly7, SU-DHL-2 or OCI-Ly10 cells in mice. The protocol:
as §2, with “27” for “28”, “(bid×27)” for “(bid×28)”, “(qd×27).” for “(qd×28).”, “180” for “190”, “9C” for “10C”, “ANOVA:” for “ANOVA: p<0.05 (*),”

Experiment [5] has as its target T1, BCL6 protein. Kind of experiment: Tumor lysate BCL6 protein levels in OCI-Ly10 xenograft (western blotting). It counts as in vivo, mice. Particulars: all dose levels, 16-hours post-last dose (FIG. 10C). Further details: from tissue; host or cells: subcutaneous xenograft tumors of OCI-Ly1, OCI-Ly7, SU-DHL-2 or OCI-Ly10 cells in mice. The protocol: as §2
(Immunoblotting shows a protein as a band on a membrane.)

Experiment [6] addresses T1, BCL6 protein. In words: BCL6 protein degradation in DLBCL cell lines measured by ELISA. It counts as cell-based. Details: Degradation of BCL6 protein in DLBCL cell lines were measured by ELISA; endogenous in cells; host or cells: OCI-Ly1, Farage, SU-DHL-4, SU-DHL-6, OCI-Ly7, SU-DHL-2, OCI-Ly10.

For `CNC(=O)COc1cc2cc(Nc3nc(N4CCC(O[C@H]5C[C@H](N6CCC(c7ccc8c(c7F)CN(C7CCC(=O)NC7=O)C8=O)CC6)C5)CC4)ncc3Cl)ccc2n(C(C)C)c1=O` (some centres unmarked) [Compound A, 2-({6-[(5-chloro-2-{4-[(1r,3r)-3-{4-[2-(2,6-dioxopiperidin-3-yl)-4-fluoro-1-oxo-2,3-dihydro-1H-isoindol-5-yl]piperidin-1-yl}cyclobutoxy]piperidin-1-yl}pyrimidin-4-yl)amino]-2-oxo-1-(propan-2-yl)-1,2-dihydroquinolin-3-yl}oxy)-N-methylacetamide], the entries for the “Change in mean tumor volume” value in experiment [1] and in experiment [3] were “tumor regressions” and “tumor regression”, respectively. In experiment [2], the Tumor growth entry is recorded as “inhibits the tumor growth”. Further, the “Tumor lysate BCL6 protein level” value in experiment [4] is listed as “dose-dependent degradation of BCL6 protein”; in experiment [5], “degraded BCL6 protein”. Also, the BCL6 protein degradation entry in experiment [6] (ABC DLBCL cell lines SU-DHL-2, OCI-Ly10, 24 hours (FIG. 2C)) is “potent BCL6 protein degradation”; in experiment [6] (GCB DLBCL cell lines Farage, SU-DHL-4, SU-DHL-6, OCI-Ly7, 24 hours (FIG. 2B)), “potent BCL6 protein degradation”; in experiment [6] (OCI-Ly1 cell line, 24-hours treatment, compared to E3-binding deficient analogue (FIG. 2A)) it was “potent BCL6 protein degradation”.
